Test results: patent US9145424B2, “Treatment of amyotrophic lateral sclerosis” (Northwestern University, priority 2008, dated 2015)
“Also recorded” adds a separate entry of the source. Where two headings read alike, the source gives them in different places. Where a SMILES comes first, the peptide text is derived from it. The star is where a group is joined. Cbz = O=C(OCc1ccccc1)*

What was measured:
[1] = In vitro plasma stability; assay type: in vitro ADME
Procedure: Plasma stability: Plasma stability of active compounds is assessed in efficacy species (mouse), toxicity species (rat, dog, monkey), and human cells.

[2] = In vitro ADME: metabolic potential / microsomal stability, species not stated
Procedure: Metabolism (microsome, S9 fraction, CYP450): Liver Cytochrome P450 (CYP450) enzymes are the major route for xenobiotic metabolism and microsomal and hepatocyte stability is the best predictor of pharmacokinetic half-life. Cross-species comparisons of metabolism in liver microsomes can predict potential issues with liver toxicity in humans. Selected active compounds are tested in liver microsomes from efficacy species (mouse), toxicity species (rat, dog, monkey), and humans for metabolic stability.
CMB-003319 was evaluated for its in vitro ADME properties.
Compounds were sent for in vitro ADME tests to evaluate their ADME properties.

[3] = system: proteasome activity (Ubi-YFP degradation); assay: Proteasome activity assay (Ubi-YFP in HeLa cells); assay type: cell-based
Procedure: FIG. 7. Arylsulfanyl pyrazolones prevent MG132-induced accumulation of Ubi-YFP. HeLa cells were co-transfected with Ubi-YFP and CMV-CFP plasmids, treated with 1 μM MG132 and 25 μM arylsulfanyl pyrazolones and Ubi-YFP fluorescence intensity normalized to CFP.
Since the CMB-003299 cytotoxicity of SOD1 protein aggregates may involve inhibition of proteasome activity, compounds that stimulate proteasome activity could reverse or prevent mutant SOD1-induced cytotoxicity. Thus, active compounds were tested for the ability to stimulate proteasome activity using a cell line expressing ubiquitin-conjugated YFP [Ubi-YFP 74]. In these cells, increased proteasome activity causes increased degradation of Ubi-YFP and decreased YFP fluorescence. Conversely, compounds that inhibit proteasome activity increase accumulation of Ubi-YFP and enhanced YFP fluorescence. As expected, MG132 augments YFP fluorescence intensity ˜3-fold compared to untreated controls (FIG. 7). […] Protein aggregates are present in the absence of MG132 and aggregation is suppressed following treatment with a provided compound.
HeLa cells (20,000/chamber) were plated on 8 chambered Tissue-tek coverglass pretreated with 1 mg/ml poly-D-lysine and allowed to adhere for 18 h at 37° C./5% CO2. Cells were transfected with 0.2 μg each CMV-CFP and Ubi-YFP plasmids using Lipofectamine 2000 according to manufacturer's instructions. Cells were allowed to express CFP and Ubi-YFP for 18 h followed by a 6 h incubation with test compounds (25 μM). MG132 (1 μM) was added for a final 18 h incubation and Ubi-YFP degradation assessed by fluorescence microscopy. Fluorescence intensity of CFP and YFP was calculated on a cell-by-cell basis from captured images using AxioVision software (Zeiss). YFP fluorescence was normalized to CFP fluorescence.

[4] = assay type: in vitro ADME; conditions: male, Sprague Dawley, 15 μM, pH 7.4; for % Mean ± S.E. / RR Mean (Response Ratio): rat
Aqueous solubility = assay type: physicochemical
Procedure: Solubility: Because compounds are stored in DMSO, it is necessary to determine aqueous solubility of initial hit compounds and their analogs. High solubility in aqueous solution is necessary for high GI absorption, bioavailability, and for chemical formulation. Compounds should be soluble in aqueous solution at >10 μg/ml. Solubility of >50 μg/ml is preferred.

Caco-2 = assay: In vitro Caco-2 permeability; assay type: in vitro ADME
Procedure: General Permeability: High membrane permeability is required for effective GI absorption and optimal bioavailability. Passive permeability is typically assessed in the PAMPA artificial membrane assay (Kansy et al., J. Med. Chem. 2002, 45(8), 1712-1722). Cell-based permeability determinations using the Caco-2 cell assay are more resource intensive but more predictive of active transport or efflux in vivo (Artursson et al., Adv. Drug. Deliv. Rev. 2001, 46(1-3), 27-43). Caco-2 assays are performed as needed during SAR development.

human HSP70 promoter = assay: Activation of cellular heat shock response (HeLa hse-luc luciferase reporter); assay type: cell-based; conditions: 8 h
Procedure: FIG. 6. Arylsulfanyl pyrazolones fail to induce heat shock response in Hsp 70 promoter assays. HeLa hse-luc cells were treated with arylsulfanyl pyrazolones (1 μM-100 μM), celestrol (1 μM-5 μM), or CdCl2 (10 μM-100 μM), for 8 h and activation of the heat shock response determined by HSP70 promoter activity.
(§1) Mechanism of action studies have been initiated for provided compounds. provided compounds active in the cytotoxicity protection assay were initially assayed for the ability to prevent SOD1 aggregation using manual, low-throughput methods. […] The ability of provided compounds to induce expression of molecular chaperones was also tested using stably-transfected HeLa cells (HeLa hse-luc) expressing a luciferase reporter gene under the control of the human HSP70 promoter. This HeLa hse-luc reporter system was used previously to identify small-molecule activators of the heat shock response (Westerheide et al. J. Biol. Chem. 2004, 279(53), 56053-56060).
HeLa cells, stably transfected with a luciferase reporter plasmid under control of the HSP70 promoter, were plated in a 96 well plate at a density of 7500 cells/100 μl. […] Cells were lysed by the addition of 100 μl BrightGlo reagent (Promega) according to manufacturer's instructions and luciferase activity measured by quantifying luminescence signal. […]

[5] = system: PC12 cells expressing wild-type SOD1; assay: SOD1 protein aggregation, wild type control line; assay type: cell-based; conditions: cells treated with MG132
Procedure: FIGS. 3A-F. Mutant but not wild type SOD1 aggregates in cells treated with the proteasome inhibitor MG132. Fluorescence micrographs of PC12 cells expressing YFP tagged wild type (WT), G93A mutant (G93A), and G85R mutant (G85R)SOD1 proteins (3A-C). The micrographs show the effects of treating cells with 200 nM MG132 for 24 hours (untreated cells are shown in insets on left, 3D-F, respectively). The wild type SOD1 expressing cells are unaffected while cells expressing mutant SOD1 show large perinuclear aggregates.
(§2) In PC12 cells that express wild-type SOD1, SOD1 was diffusely localized throughout the cell (Matsumoto et al., J. Cell. Biol. 2005, 171(1), 75-85). […] Therefore, these effects are likely to be due to MG132-induced proteasome inhibition, and not due to an off-target effect of MG132.

[6] = system: PC12 cells expressing G85R SOD1; assay: Mutant SOD1 protein aggregation assay; assay type: cell-based
Description: Compounds that are active in the above assay could theoretically protect against mutant SOD1-induced cytotoxicity through a number of mechanisms, including the following: 1) compounds could nonspecifically block or reverse protein aggregation via chaperone induction, as observed for radicicol and geldanamycin; 2) compounds could block or reverse the aggregation of a specific aggregated protein form; 3) compounds could interfere with an event downstream of protein aggregation that plays a critical role in mutant SOD1-induced cytotoxicity (e.g., proteasome function); and 4) compounds could act directly on SOD1 in a manner that prevents mutant SOD1 aggregation. These possibilities were tested using an assay that directly measures protein aggregation. In addition, unlike the high throughput cytotoxicity protection assay, the protein aggregation assay is based on G85R SOD1; this broadens the scope of the screening strategy, and should eliminate compounds with highly specific activity (i.e., G93A SOD1 limited) against protein aggregation.
as §2
The identification of a positive control is a crucial step in assay development. Thus, PC12 cells expressing G85R or G93A mutant SOD1 were treated with MG132 to induce protein aggregation, and then co-treated with candidate chemical suppressors of protein aggregation. […]
To allow this assay to be used in a high-throughput manner, a Cellomics Arrayscan® high content microscopy system was used for screening and quantification. […]
Arrayscan images were recorded using a 20× objective and the XF93-TRITC filter set in channel 1 for the Image-iT WGA plasma membrane dye or the XF93-FITC filter set for SOD1-YFP and analyzed using Cellomics spot detector software. […] Data were recorded as spot count (aggregate)/object (cell).

[7] = system: PC12 cells expressing no SOD1, wild type SOD1 and G85R SOD1; assay: Sensitivity of PC12 cells to proteasome inhibitor, calcein-AM viability; assay type: cell-based
Procedure: (§3) FIGS. 1A-C. […] Cell survival was determined using the viability stain calcein-AM.

[8] = system: PC12 cells expressing G93A SOD1; assay: as above; assay type: cell-based
Procedure: as §3

[9] = system: PC12 cells expressing G93A mutant SOD1; assay: Mutant SOD1 protein aggregation; assay type: cell-based
Procedure: as §2
The identification of a positive control is a crucial step in assay development. Thus, PC12 cells expressing G85R or G93A mutant SOD1 were treated with MG132 to induce protein aggregation, and then co-treated with candidate chemical suppressors of protein aggregation. Two compounds with similar activity were identified in these experiments: geldanamycin and radicicol. Both compounds induce heat shock transcription factor […], which in turn induces the heat shock response (FIG. 4).
as §1, with “This HeLa hse-luc reporter system was used previously to identify small-molecule activators of the heat shock response (Westerheide et al. J. Biol. Chem. 2004, 279(53), 56053-56060).” left out

[10] = system: PC12 cells that express mutant G93A SOD1; assay: Mutant SOD1-induced cytotoxicity protection assay; conditions: rat, 48 h
Procedure: This idea was tested by examining the sensitivity of PC12 cells to SOD1 aggregates in the presence and absence of proteasome inhibitor MG132. PC12 cells expressing no SOD1, wild type SOD1, G85R SOD1 or G93A SOD1 were grown with or without MG132 (FIG. 1).
PC12 cells expressing G93A SOD1 were treated with 100 nM MG132 with or without co-treatment with geldanamycin or radicicol.

[11] = NADPH dependent rat liver microsomal metabolite study by HPLC; assay type: in vitro ADME; conditions: NADPH dependent rat liver microsomes, up to 60 minutes
Procedure: TC-II-68 and TC-II-70 were proposed as possible metabolites and prepared before the study.
After 0, 5, 10, 20, 40, and 60 minutes incubation with rat liver microsome, 50 μL acetonitrile was added to quench reactions. The reaction mixture was vortexed and incubated in an ice bath for 2 h. The samples were centrifuged to remove the precipitated protein. The supernatant solutions were loaded directly for HPLC analysis.

Cc1cc(SCc2cc(=O)[nH][nH]2)c(Cl)cc1Cl [CMB-003319]
plasma stability, in words [1]: poor | metabolic potential [2]: medium | effect on MG132-induced Ubi-YFP fluorescence ([3]; 25 μM compound, 1 μM MG132): strongly inhibit | rat liver microsomal stability, in words [4]: poor microsomal stability | aqueous-solubility, in words (Aqueous solubility): medium | CaCO-2 permeability, in words (Caco-2): medium

[Cl][Cd][Cl] [CdCl2]
luciferase activity (HSP70 promoter) (human HSP70 promoter): strongly induced luciferase activity

CC(C)C[C@@H](C=O)NC(=O)[C@H](CC(C)C)NC(=O)[C@H](CC(C)C)NC(=O)OCc1ccccc1 [MG132] (Cbz-Leu-Leu-Leu-aldehyde)
aggregation, in words [5]: no aggregation was observed | YFP fluorescence intensity compared to untreated controls ([3]; 1 μM): ~3 fold | cells containing protein aggregates ([6]; cells treated with MG132): up to 75% | toxicity, in words ([7]; 100 nM, 24 hours, any of the cell lines): no toxicity | IC50 ([7]; Rattus norvegicus, PC-12, cells expressing no SOD1, wild type SOD1 and G85R SOD1, read-out: IC50 of proteasome inhibitor on cell viability): ~400 nM | sensitivity of G93A SOD1 cells relative to the other lines [8]: approximately 5 fold | toxicity, in words ([8]; 100 nM, 48 hours): selectively toxic | IC50 ([8]; Rattus norvegicus, PC-12, read-out: IC50 of proteasome inhibitor on cell viability): ~75 nM | cells with protein aggregates ([9]; following treatment with MG132): ~75%

C[C@@H]1C[C@H]2O[C@@H]2/C=C\C=C\C(=O)Cc2c(Cl)c(O)cc(O)c2C(=O)O1 [Radicicol, reference compound]
proportion of cells with aggregates ([6]; G85R or G93A mutant SOD1 cells, MG132 plus co-treatment, 75% without): 25% | effect on protein aggregation, in words ([6]; MG132-induced aggregation): decreases mutant SOD1 aggregation | effect on protein aggregation, in words ([9]; MG132-treated cells): reduced formation of protein aggregates | efficacy (maximum viability at optimum dosage) [10]: 80%

O=c1cc(CSc2ccc(Cl)cc2)[nH][nH]1 [TC-I-165, 5-((4-Chlorophenylthio)methyl)-1H-pyrazol-3(2H)-one]
microsomal metabolites [11]: only TC-II-68 was a direct metabolite; also recorded: the only direct metabolite from TC-I-165 was TC-II-68; also recorded: TC-II-70 is not a metabolite | % Mean ± S.E. ([4]; 0 min): 100 ± 26.4% | RR Mean (Response Ratio) ([4]; 0 min): 2.529 | % Mean ± S.E. ([4]; 20 min): 12.4 ± 0.89% | RR Mean (Response Ratio) ([4]; 20 min): 0.314

CC1=C(O)C(=O)C=C2C1=CC=C1[C@@]2(C)CC[C@@]2(C)[C@@H]3C[C@](C)(C(=O)O)CC[C@]3(C)CC[C@]12C [celastrol, celestrol]
luciferase activity (HSP70 promoter) (human HSP70 promoter): strongly induced luciferase activity
